Measured values reported in patent US9156845B2, “4-(substituted amino)-7H-pyrrolo[2,3-d] pyrimidines as LRRK2 inhibitors” (Pfizer Inc., priority 2012, dated 2015).

Tests used:
[1] = biological target: GST-tagged truncated LRRK2 (Homo sapiens (Human), UniProt Q5S007); test: LRRK2 Lantha Screen kinase assay; type: biochemical; conditions: geometric mean of 2-5 determinations unless otherwise indicated (a: >=6 determinations; b: single determination); read-out: LRRK2 WT IC50
AKT1 = AKT1 (Homo sapiens (Human), UniProt P31749); test: ActivX kinase probe assay (human PBMC); type: binding; conditions: AKT1, read-out: percent inhibition
AKT2, AKT3 = test: ActivX kinase probe assay (human PBMC); type: binding
CHK2 = CHK2 (Homo sapiens (Human), UniProt O96017); test: ActivX kinase probe assay (human PBMC); type: binding; conditions: CHK2, read-out: percent inhibition
DNAPK = DNAPK (Homo sapiens (Human), UniProt P78527); test: ActivX kinase probe assay (human PBMC); type: binding; conditions: DNAPK, read-out: percent inhibition
EphA1 = EphA1 (Homo sapiens (Human), UniProt P21709); test: ActivX kinase probe assay (human PBMC); type: binding; conditions: EphA1, read-out: percent inhibition
Erk5 = Erk5 (Homo sapiens (Human), UniProt Q13164); test: ActivX kinase probe assay (human PBMC); type: binding; conditions: Erk5, read-out: percent inhibition
HPK1 = HPK1 (Homo sapiens (Human), UniProt Q92918); test: ActivX kinase probe assay (human PBMC); type: binding; conditions: HPK1, read-out: percent inhibition
HPK1, sequence (Q92918 whole entry): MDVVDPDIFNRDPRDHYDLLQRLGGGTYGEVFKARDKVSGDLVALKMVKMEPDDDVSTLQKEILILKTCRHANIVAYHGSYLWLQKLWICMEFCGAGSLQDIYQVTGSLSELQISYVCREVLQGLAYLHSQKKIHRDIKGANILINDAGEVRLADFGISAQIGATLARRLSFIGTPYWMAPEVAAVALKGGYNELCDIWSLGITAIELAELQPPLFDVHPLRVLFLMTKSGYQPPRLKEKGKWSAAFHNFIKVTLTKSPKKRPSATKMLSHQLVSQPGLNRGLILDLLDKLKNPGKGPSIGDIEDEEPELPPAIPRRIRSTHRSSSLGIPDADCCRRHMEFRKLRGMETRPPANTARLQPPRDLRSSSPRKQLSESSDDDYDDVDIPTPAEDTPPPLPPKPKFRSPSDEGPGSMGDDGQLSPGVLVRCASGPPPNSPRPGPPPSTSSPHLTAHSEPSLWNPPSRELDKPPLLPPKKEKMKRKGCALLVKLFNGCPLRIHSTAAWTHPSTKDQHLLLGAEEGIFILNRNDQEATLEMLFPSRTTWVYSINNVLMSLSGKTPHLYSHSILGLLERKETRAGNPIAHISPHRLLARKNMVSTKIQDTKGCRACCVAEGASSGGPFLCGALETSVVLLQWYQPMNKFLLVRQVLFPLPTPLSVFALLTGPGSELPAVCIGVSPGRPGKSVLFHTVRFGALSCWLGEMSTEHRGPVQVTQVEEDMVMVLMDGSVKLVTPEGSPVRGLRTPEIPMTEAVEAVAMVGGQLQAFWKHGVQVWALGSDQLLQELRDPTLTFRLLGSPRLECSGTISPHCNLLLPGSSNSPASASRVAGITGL

IKKa = IKKa (Homo sapiens (Human), UniProt O15111); test: ActivX kinase probe assay (human PBMC); type: binding; conditions: IKKa, read-out: percent inhibition
IKKe = IKKe (Homo sapiens (Human), UniProt Q14164); test: ActivX kinase probe assay (human PBMC); type: binding; conditions: IKKe, read-out: percent inhibition
ILK = ILK (Homo sapiens (Human), UniProt Q13418); test: ActivX kinase probe assay (human PBMC); type: binding; conditions: ILK, read-out: percent inhibition
IRE1 = IRE1 (Homo sapiens (Human), UniProt O75460); test: ActivX kinase probe assay (human PBMC); type: binding; conditions: IRE1, read-out: percent inhibition
IRE1, sequence (O75460 19-977): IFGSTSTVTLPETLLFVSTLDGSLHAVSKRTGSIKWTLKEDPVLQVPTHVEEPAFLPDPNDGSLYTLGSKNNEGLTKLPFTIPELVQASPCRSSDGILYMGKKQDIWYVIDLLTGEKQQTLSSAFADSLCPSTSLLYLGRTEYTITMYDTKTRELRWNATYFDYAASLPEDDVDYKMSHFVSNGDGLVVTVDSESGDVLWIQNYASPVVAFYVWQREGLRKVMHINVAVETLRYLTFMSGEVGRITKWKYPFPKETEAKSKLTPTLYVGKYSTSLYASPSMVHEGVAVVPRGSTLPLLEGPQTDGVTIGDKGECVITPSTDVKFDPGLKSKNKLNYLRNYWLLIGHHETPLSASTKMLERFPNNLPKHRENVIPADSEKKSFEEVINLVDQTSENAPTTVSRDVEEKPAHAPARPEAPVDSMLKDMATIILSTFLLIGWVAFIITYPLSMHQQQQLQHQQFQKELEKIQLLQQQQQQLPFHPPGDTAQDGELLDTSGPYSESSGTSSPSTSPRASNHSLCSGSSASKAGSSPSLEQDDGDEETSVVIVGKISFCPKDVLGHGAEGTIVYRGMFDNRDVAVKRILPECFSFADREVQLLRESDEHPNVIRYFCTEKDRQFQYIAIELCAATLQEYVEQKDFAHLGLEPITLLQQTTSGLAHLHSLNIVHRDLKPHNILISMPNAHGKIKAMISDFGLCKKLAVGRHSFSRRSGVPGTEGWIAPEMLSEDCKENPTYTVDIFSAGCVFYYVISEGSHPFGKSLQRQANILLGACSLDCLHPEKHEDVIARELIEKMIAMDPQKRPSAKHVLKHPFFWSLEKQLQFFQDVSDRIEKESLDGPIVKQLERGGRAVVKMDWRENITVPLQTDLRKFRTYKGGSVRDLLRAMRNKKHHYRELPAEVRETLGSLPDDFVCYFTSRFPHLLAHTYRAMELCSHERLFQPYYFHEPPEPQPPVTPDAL

KHS1 = KHS1 (Homo sapiens (Human), UniProt Q9Y4K4); test: ActivX kinase probe assay (human PBMC); type: binding; conditions: KHS1, read-out: percent inhibition
KHS1, sequence (Q9Y4K4 whole entry): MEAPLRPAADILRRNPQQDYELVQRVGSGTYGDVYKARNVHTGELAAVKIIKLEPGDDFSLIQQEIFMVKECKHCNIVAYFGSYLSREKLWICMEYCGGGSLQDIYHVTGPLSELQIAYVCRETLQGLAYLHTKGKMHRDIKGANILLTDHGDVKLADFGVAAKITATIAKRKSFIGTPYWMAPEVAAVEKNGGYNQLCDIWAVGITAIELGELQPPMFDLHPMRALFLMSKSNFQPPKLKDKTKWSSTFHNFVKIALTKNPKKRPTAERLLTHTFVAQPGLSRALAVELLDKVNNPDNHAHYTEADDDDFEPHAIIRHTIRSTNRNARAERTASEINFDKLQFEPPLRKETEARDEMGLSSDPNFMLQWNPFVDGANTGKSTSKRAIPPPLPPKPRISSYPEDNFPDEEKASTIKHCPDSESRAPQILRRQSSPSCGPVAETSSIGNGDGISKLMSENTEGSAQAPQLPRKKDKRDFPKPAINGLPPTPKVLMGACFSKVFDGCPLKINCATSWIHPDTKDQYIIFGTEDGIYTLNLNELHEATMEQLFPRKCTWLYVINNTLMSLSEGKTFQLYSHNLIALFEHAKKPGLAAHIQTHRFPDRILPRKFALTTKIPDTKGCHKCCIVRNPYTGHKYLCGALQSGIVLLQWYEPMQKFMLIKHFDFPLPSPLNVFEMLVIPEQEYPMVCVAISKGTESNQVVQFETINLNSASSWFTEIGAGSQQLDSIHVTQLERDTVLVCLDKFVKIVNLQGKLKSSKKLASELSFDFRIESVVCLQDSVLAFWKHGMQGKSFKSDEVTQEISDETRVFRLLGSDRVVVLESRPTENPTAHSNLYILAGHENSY

LATS1 = LATS1 (Homo sapiens (Human), UniProt O95835); test: ActivX kinase probe assay (human PBMC); type: binding; conditions: LATS1, read-out: percent inhibition
LYN = LYN (Homo sapiens (Human), UniProt P07948); test: ActivX kinase probe assay (human PBMC); type: binding; conditions: LYN, read-out: percent inhibition
LYN, sequence (P07948 whole entry): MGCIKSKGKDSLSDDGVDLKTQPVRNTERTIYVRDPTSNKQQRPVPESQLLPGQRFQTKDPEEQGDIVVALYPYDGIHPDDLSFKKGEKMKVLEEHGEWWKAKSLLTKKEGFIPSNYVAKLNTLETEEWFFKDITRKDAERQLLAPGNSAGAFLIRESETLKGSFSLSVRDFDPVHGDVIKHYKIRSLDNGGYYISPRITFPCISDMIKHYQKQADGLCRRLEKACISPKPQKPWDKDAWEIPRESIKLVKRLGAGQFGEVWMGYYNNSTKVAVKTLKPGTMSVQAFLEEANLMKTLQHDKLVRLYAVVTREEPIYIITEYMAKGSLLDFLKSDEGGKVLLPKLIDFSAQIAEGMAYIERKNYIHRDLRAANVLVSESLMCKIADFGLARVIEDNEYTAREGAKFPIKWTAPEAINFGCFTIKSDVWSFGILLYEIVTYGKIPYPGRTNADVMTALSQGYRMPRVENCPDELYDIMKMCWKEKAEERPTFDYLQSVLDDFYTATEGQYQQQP

MAP2K3 = MAP2K3 (Homo sapiens (Human), UniProt P46734); test: ActivX kinase probe assay (human PBMC); type: binding; conditions: MAP2K3, read-out: percent inhibition
MAP3K1 = MAP3K1 (Homo sapiens (Human), UniProt Q13233); test: ActivX kinase probe assay (human PBMC); type: binding; conditions: MAP3K1, read-out: percent inhibition
MAP3K1, sequence (Q13233 whole entry): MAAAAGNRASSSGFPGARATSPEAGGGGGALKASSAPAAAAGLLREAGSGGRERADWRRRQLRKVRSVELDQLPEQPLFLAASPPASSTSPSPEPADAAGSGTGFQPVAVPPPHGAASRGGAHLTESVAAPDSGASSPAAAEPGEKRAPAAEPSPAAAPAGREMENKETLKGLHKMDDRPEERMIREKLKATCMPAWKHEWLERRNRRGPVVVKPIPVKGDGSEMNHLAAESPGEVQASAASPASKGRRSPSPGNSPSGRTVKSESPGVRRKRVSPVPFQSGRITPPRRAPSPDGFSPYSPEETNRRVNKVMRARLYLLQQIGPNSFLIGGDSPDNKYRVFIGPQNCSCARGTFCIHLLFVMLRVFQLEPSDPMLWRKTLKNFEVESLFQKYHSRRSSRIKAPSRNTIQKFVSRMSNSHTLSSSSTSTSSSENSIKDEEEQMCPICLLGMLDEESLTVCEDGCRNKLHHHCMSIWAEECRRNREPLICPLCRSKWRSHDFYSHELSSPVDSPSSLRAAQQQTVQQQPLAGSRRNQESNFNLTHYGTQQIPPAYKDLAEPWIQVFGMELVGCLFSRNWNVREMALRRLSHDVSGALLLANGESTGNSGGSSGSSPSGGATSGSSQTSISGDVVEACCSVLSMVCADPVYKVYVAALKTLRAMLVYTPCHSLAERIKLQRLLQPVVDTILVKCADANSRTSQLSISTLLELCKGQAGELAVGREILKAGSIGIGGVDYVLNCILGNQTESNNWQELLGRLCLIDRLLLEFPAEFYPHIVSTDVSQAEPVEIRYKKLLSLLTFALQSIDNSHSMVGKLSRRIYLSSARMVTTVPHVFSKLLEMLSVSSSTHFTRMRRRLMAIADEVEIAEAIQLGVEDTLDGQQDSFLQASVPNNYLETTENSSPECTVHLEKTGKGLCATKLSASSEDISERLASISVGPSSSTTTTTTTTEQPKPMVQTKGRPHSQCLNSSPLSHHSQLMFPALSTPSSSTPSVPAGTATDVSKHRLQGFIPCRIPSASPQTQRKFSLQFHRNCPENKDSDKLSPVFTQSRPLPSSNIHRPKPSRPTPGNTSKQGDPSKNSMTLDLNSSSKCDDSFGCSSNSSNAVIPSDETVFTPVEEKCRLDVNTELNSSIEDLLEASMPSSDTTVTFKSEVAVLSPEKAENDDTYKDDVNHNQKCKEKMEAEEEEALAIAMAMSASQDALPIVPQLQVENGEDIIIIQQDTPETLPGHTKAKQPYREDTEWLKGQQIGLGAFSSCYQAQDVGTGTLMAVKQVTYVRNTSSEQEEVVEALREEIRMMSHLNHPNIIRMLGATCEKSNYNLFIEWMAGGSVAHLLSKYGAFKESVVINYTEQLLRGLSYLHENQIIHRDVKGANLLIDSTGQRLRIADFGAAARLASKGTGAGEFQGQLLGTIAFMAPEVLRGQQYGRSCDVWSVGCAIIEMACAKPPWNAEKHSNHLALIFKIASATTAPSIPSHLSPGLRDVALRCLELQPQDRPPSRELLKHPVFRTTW

MAP3K5 = MAP3K5 (Homo sapiens (Human), UniProt Q99683); test: ActivX kinase probe assay (human PBMC); type: binding; conditions: MAP3K5, read-out: percent inhibition
MARK3 = MARK3 (Homo sapiens (Human), UniProt P27448); test: ActivX kinase probe assay (human PBMC); type: binding; conditions: MARK3, read-out: percent inhibition
MAST3 = MAST3 (Homo sapiens (Human), UniProt O60307); test: ActivX kinase probe assay (human PBMC); type: binding; conditions: MAST3, read-out: percent inhibition
MSK1 domain1 = MSK1 domain1 (Homo sapiens (Human), UniProt O75582); test: ActivX kinase probe assay (human PBMC); type: binding; conditions: MSK1 domain1, read-out: percent inhibition
MST3 = MST3 (Homo sapiens (Human), UniProt Q9Y6E0); test: ActivX kinase probe assay (human PBMC); type: binding; conditions: MST3, read-out: percent inhibition
NDR2 = NDR2 (Homo sapiens (Human), UniProt Q9Y2H1); test: ActivX kinase probe assay (human PBMC); type: binding; conditions: NDR2, read-out: percent inhibition
p38d, p38g = test: ActivX kinase probe assay (human PBMC); type: binding
PI4KB = PI4KB (Homo sapiens (Human), UniProt Q9UBF8); test: ActivX kinase probe assay (human PBMC); type: binding; conditions: PI4KB, read-out: percent inhibition
PIK3C3 = PIK3C3 (Homo sapiens (Human), UniProt Q8NEB9); test: ActivX kinase probe assay (human PBMC); type: binding; conditions: PIK3C3, read-out: percent inhibition
RIPK3 = RIPK3 (Homo sapiens (Human), UniProt Q9Y572); test: ActivX kinase probe assay (human PBMC); type: binding; conditions: RIPK3, read-out: percent inhibition
RSK1 domain1 = RSK1 domain1 (Homo sapiens (Human), UniProt Q15418); test: ActivX kinase probe assay (human PBMC); type: binding; conditions: RSK1 domain1, read-out: percent inhibition
RSK1 domain2 = RSK1 domain2 (Homo sapiens (Human), UniProt Q15418); test: ActivX kinase probe assay (human PBMC); type: binding; conditions: RSK1 domain2, read-out: percent inhibition
RSK2 domain1 = RSK2 domain1 (Homo sapiens (Human), UniProt P51812); test: ActivX kinase probe assay (human PBMC); type: binding; conditions: RSK2 domain1, read-out: percent inhibition
RSK2 domain2 = RSK2 domain2 (Homo sapiens (Human), UniProt P51812); test: ActivX kinase probe assay (human PBMC); type: binding; conditions: RSK2 domain2, read-out: percent inhibition
SMG1 = SMG1 (Homo sapiens (Human), UniProt Q96Q15); test: ActivX kinase probe assay (human PBMC); type: binding; conditions: SMG1, read-out: percent inhibition
STLK5 = STLK5 (Homo sapiens (Human), UniProt Q7RTN6); test: ActivX kinase probe assay (human PBMC); type: binding; conditions: STLK5, read-out: percent inhibition
STLK5, sequence (Q7RTN6 whole entry): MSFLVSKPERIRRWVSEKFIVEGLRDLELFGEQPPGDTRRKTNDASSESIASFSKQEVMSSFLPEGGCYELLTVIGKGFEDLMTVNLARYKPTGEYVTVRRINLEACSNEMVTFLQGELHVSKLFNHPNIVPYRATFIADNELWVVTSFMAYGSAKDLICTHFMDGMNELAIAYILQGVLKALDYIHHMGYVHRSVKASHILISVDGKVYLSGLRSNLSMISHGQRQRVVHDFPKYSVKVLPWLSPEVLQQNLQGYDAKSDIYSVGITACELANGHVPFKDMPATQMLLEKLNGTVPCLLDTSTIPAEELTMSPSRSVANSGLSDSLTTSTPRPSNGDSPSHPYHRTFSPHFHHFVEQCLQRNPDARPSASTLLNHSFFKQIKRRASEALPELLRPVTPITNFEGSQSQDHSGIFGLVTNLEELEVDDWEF

TAO1, TAO3 = test: ActivX kinase probe assay (human PBMC); type: binding
TLK1 = TLK1 (Homo sapiens (Human), UniProt Q9UKI8); test: ActivX kinase probe assay (human PBMC); type: binding; conditions: TLK1, read-out: percent inhibition

Q: What does the source list for `Cn1cc(-c2c[nH]c3ncnc(N4CCOCC4)c23)cc1C#N` [Example 217, 1-methyl-4-[4-(morpholin-4-yl)-7H-pyrrolo[2,3-d]pyrimidin-5-yl]-1H-pyrrole-2-carbonitrile]?
A: IC50 [1]: 6.37 nM; inhibition at 0.1 µM (AKT1; 0.1 μM): 5.5%; inhibition at 1 µM (AKT1; 1 μM): -3.6%; percent inhibition (AKT2, AKT3; 0.1 μM): −9.7%; percent inhibition (AKT2, AKT3; 1 μM): −3.8%; inhibition at 0.1 µM (CHK2; 0.1 μM): 8.6%; inhibition at 1 µM (CHK2; 1 μM): 6.4%; inhibition at 0.1 µM (DNAPK; 0.1 μM): 31%; inhibition at 1 µM (DNAPK; 1 μM): 31.5%; inhibition at 0.1 µM (EphA1; 0.1 μM): 11.1%; inhibition at 1 µM (EphA1; 1 μM): -16.1%; inhibition at 0.1 µM (Erk5; 0.1 μM): -2.6%; inhibition at 1 µM (Erk5; 1 μM): -5.4%; inhibition at 0.1 µM (HPK1; 0.1 μM): -13.7%; inhibition at 1 µM (HPK1; 1 μM): 1.7%; inhibition at 0.1 µM (IKKa; 0.1 μM): -2.5%; inhibition at 1 µM (IKKa; 1 μM): -3.7%; inhibition at 0.1 µM (IKKe; 0.1 μM): -3%; inhibition at 1 µM (IKKe; 1 μM): 20.4%; inhibition at 0.1 µM (ILK; 0.1 μM): -6.3%; inhibition at 1 µM (ILK; 1 μM): -3.8%; inhibition at 0.1 µM (IRE1; 0.1 μM): 3.2%; inhibition at 1 µM (IRE1; 1 μM): -19.5%; inhibition at 0.1 µM (KHS1; 0.1 μM): 10.7%; inhibition at 1 µM (KHS1; 1 μM): 7.6%; inhibition at 0.1 µM (LATS1; 0.1 μM): -3.9%; inhibition at 1 µM (LATS1; 1 μM): 1.9%; inhibition at 0.1 µM (LYN; 0.1 μM): 8.3%; inhibition at 1 µM (LYN; 1 μM): -19.2%; inhibition at 0.1 µM (MAP2K3; 0.1 μM): 2.5%; inhibition at 1 µM (MAP2K3; 1 μM): 3.3%; inhibition at 0.1 µM (MAP3K1; 0.1 μM): -17.3%; inhibition at 1 µM (MAP3K1; 1 μM): 14.8%; inhibition at 0.1 µM (MAP3K5; 0.1 μM): 7%; inhibition at 1 µM (MAP3K5; 1 μM): 44.5%; inhibition at 0.1 µM (MARK3; 0.1 μM): 16.2%; inhibition at 1 µM (MARK3; 1 μM): 18.4%; inhibition at 0.1 µM (MAST3; 0.1 μM): -11.7%; inhibition at 1 µM (MAST3; 1 μM): 0.4%; inhibition at 0.1 µM (MSK1 domain1; 0.1 μM): -12.1%; inhibition at 1 µM (MSK1 domain1; 1 μM): -2.2%; inhibition at 0.1 µM (MST3; 0.1 μM): 6.7%; inhibition at 1 µM (MST3; 1 μM): 10.9%; inhibition at 0.1 µM (NDR2; 0.1 μM): 28.9%; inhibition at 1 µM (NDR2; 1 μM): -6%; percent inhibition (p38d, p38g; 0.1 μM): −0.4%; percent inhibition (p38d, p38g; 1 μM): 1.5%; inhibition at 0.1 µM (PI4KB; 0.1 μM): 9.9%; inhibition at 1 µM (PI4KB; 1 μM): -0.5%; inhibition at 0.1 µM (PIK3C3; 0.1 μM): 19.9%; inhibition at 1 µM (PIK3C3; 1 μM): 10.2%; inhibition at 0.1 µM (RIPK3; 0.1 μM): -7.3%; inhibition at 1 µM (RIPK3; 1 μM): -9.1%; inhibition at 0.1 µM (RSK1 domain1; 0.1 μM): 27.6%; inhibition at 1 µM (RSK1 domain1; 1 μM): 45.6%; inhibition at 0.1 µM (RSK1 domain2; 0.1 μM): -3.4%; inhibition at 1 µM (RSK1 domain2; 1 μM): 5%; inhibition at 0.1 µM (RSK2 domain1; 0.1 μM): 13.2%; inhibition at 1 µM (RSK2 domain1; 1 μM): 61.6%; inhibition at 0.1 µM (RSK2 domain2; 0.1 μM): -4.1%; inhibition at 1 µM (RSK2 domain2; 1 μM): 2.8%; inhibition at 0.1 µM (SMG1; 0.1 μM): 1.5%; inhibition at 1 µM (SMG1; 1 μM): -6.1%; inhibition at 0.1 µM (STLK5; 0.1 μM): -6.9%; inhibition at 1 µM (STLK5; 1 μM): -11.5%; percent inhibition (TAO1, TAO3; 0.1 μM): −9.7%; percent inhibition (TAO1, TAO3; 1 μM): −16.5%; inhibition at 0.1 µM (TLK1; 0.1 μM): 7.6%; inhibition at 1 µM (TLK1; 1 μM): 16.7%
